# Results reported in ChEMBL document CHEMBL5226361, “Marine Sponge-Derived Alkaloid Induces Mitochondrial Dysfunction and Inhibits the PI3K/AKT/mTOR Signaling Pathway against Burkitt's Lymphoma” (J Nat Prod, 2023).
# Activity calls are given as the source filed them. The rule behind the calls is not given here.
# Key:
# [1] = tested on: Raji; assay: Induction of cell cycle arrest in human Raji cells assessed as S phase cells at 5 uM incubated for 48 hrs by PI staining based flow cytometry analysis (reference value: 69.78%); type: functional
# [2] = Inhibition of PI3K/AKT/mTOR signalling pathway in human Raji cells assessed as increase in ratio of AKT phosphorylation at […] residue to total AKT protein level at 5 uM incubated for 12 hrs in the presence of YS49 by Western blot analysis; type: cell-based
# [3] = tested on: Raji; assay: Induction of cell cycle arrest at G0/G1 phase in human Raji cells assessed as downregulation of CDK2 protein expression at 1.25 to 5 uM incubated for 24 to 48 hrs by Western blot analysis; type: functional, cell-based; conditions: dose 1.25-5 µM, time 24-48 hrs
# [4] = tested on: Raji; assay: Induction of cell cycle arrest in human Raji cells assessed as G2 phase cells at 5 uM incubated for 48 hrs by PI staining based flow cytometry analysis (reference value: 10.06%); type: functional
# [5] = tested on: Raji; assay: Induction of apoptosis in human Raji cells assessed as viable cells at 5 uM incubated for 24 hrs by Annexin V-FITC/PI staining based flow cytometric analysis (reference value: 97.8%); type: functional; conditions: read-out: Activity
# [6] = Inhibition of PI3K/AKT/mTOR signalling pathway in human Daudi cells assessed as inhibition of mTOR phosphorylation incubated for 24 hrs by Western blot analysis; type: cell-based; conditions: dose 0.75-3 µM
# [7] = tested on: Raji; assay: Induction of apoptosis in human Raji cells assessed as necrotic cells at 5 uM incubated for 24 hrs by Annexin V-FITC/PI staining based flow cytometric analysis (reference value: 1.5%); type: functional
# [8] = tested on: Daudi; assay: Induction of cell cycle arrest in human Daudi cells assessed as S phase cells at 3 uM incubated for 24 hrs by PI staining based flow cytometry analysis (reference value: 49.79%); type: functional
# [9] = tested on: Raji; assay: Induction of apoptosis in human Raji cells assessed as downregulation of BCL-XL expression at 1.25 to 5 uM incubated for 24 hrs by Western blot analysis; type: functional, cell-based; conditions: dose 1.25-5 µM
# [10] = tested on: Raji; assay: Induction of apoptosis in human Raji cells assessed as early apoptotic cells at 5 uM incubated for 24 hrs by Annexin V-FITC/PI staining based flow cytometric analysis (reference value: 0.8%); type: functional
# [11] = tested on: Daudi; assay: Induction of cell cycle arrest at G0/G1 phase in human Daudi cells assessed as downregulation of CDK2 protein expression at 0.75 to 3 uM incubated for 24 to 48 hrs by Western blot analysis; type: functional, cell-based; conditions: dose 0.75-3 µM, time 24-48 hrs
# [12] = tested on: Raji; assay: Induction of apoptosis in human Raji cells assessed as effect on caspase-8 protein expression at 1.25 to 5 uM incubated for 24 hrs by Western blot analysis; type: functional, cell-based; conditions: dose 1.25-5 µM
# [13] = Inhibition of PI3K/AKT/mTOR signalling pathway in human Daudi cells assessed as increase in ratio of PI3K phosphorylation to total PI3K protein level at 3 uM incubated for 12 hrs in the presence of YS49 by Western blot analysis; type: cell-based
# [14] = tested on: Daudi; assay: Induction of apoptosis in human Daudi cells assessed as late apoptotic cells at 3 uM incubated for 24 hrs by Annexin V-FITC/PI staining based flow cytometric analysis (reference value: 0.0%); type: functional
# [15] = tested on: Raji; assay: Antiproliferative activity against human Raji cells assessed as inhibition of cell growth incubated for 48 hrs by CCK-8 assay; type: functional, cell-based
# [16] = tested on: Raji; assay: Induction of apoptosis in human Raji cells assessed as upregulation of cleaved PARP expression at 1.25 to 5 uM incubated for 24 hrs by Western blot analysis; type: functional, cell-based; conditions: dose 1.25-5 µM
# [17] = tested on: Raji; assay: Induction of cell cycle arrest at G0/G1 phase in human Raji cells assessed as upregulation of gamma-H2AX protein expression at 1.25 to 5 uM incubated for 24 to 48 hrs by Western blot analysis; type: functional, cell-based; conditions: dose 1.25-5 µM, time 24-48 hrs
# [18] = tested on: Raji; assay: Induction of cell cycle arrest at G0/G1 phase in human Raji cells assessed as upregulation of p21 protein expression at 1.25 to 5 uM incubated for 24 to 48 hrs by Western blot analysis; type: functional, cell-based; conditions: dose 1.25-5 µM, time 24-48 hrs
# [19] = tested on: Daudi; assay: Induction of apoptosis in human Daudi cells assessed as downregulation of Bcl-xl expression at 0.75 to 3 uM incubated for 24 hrs by Western blot analysis; type: functional, cell-based; conditions: dose 0.75-3 µM
# [20] = tested on: Daudi; assay: Downregulation of c-Myc expression level in human Daudi cells incubated for 24 hrs by Western blot analysis; type: functional, cell-based; conditions: dose 0.75-3 µM
# [21] = tested on: Daudi; assay: Induction of apoptosis in human Daudi cells assessed as nuclear fragmentation incubated for 24 hrs by Hoechst 33258/PI staining based fluorescence microscopic analysis; type: functional, cell-based; conditions: dose 0.75-3 µM
# [22] = tested on: Daudi; assay: Induction of apoptosis in human Daudi cells assessed as viable cells at 3 uM incubated for 24 hrs by Annexin V-FITC/PI staining based flow cytometric analysis (reference value: 97.2%); type: functional; conditions: read-out: Activity
# [23] = tested on: Daudi; assay: Effect on total AKT protein level in human Daudi cells at 0.75 to 3 uM incubated for 24 hrs by Western blot analysis; type: functional, cell-based; conditions: dose 0.75-3 µM
# [24] = tested on: Daudi; assay: Induction of cell cycle arrest at G0/G1 phase in human Daudi cells assessed as upregulation of gamma-H2AX protein expression at 0.75 to 3 uM incubated for 24 to 48 hrs by Western blot analysis; type: functional, cell-based; conditions: dose 0.75-3 µM, time 24-48 hrs
# [25] = Inhibition of PI3K/AKT/mTOR signalling pathway in human Raji cells assessed as increase in ratio of mTOR phosphorylation to total mTOR protein level at 5 uM incubated for 12 hrs in the presence of YS49 by Western blot analysis; type: cell-based
# [26] = tested on: Raji; assay: Effect on total PI3K protein level in human Raji cells at 1.25 to 5 uM incubated for 24 hrs by Western blot analysis; type: functional, cell-based; conditions: dose 1.25-5 µM
# [27] = tested on: Daudi; assay: Induction of apoptosis in human Daudi cells assessed as downregulation of Mcl-1 expression at 0.75 to 3 uM incubated for 24 hrs by Western blot analysis; type: functional, cell-based; conditions: dose 0.75-3 µM
# [28] = tested on: Raji; assay: Induction of mitochondrial respiratory chain damage in human Raji cells assessed as decrease in NDUFV2 protein expression at 2.5 to 5 uM incubated for 48 hrs by Western blot analysis; type: functional, cell-based; conditions: dose 2.5-5 µM
# [29] = tested on: Daudi; assay: Antiproliferative activity against human Daudi cells assessed as inhibition of cell growth incubated for 48 hrs by CCK-8 assay; type: functional, cell-based
# [30] = tested on: Daudi; assay: Induction of mitochondrial oxidative damage in human Daudi cells assessed as increase in intracellular mitochondrial superoxide generation at 3 uM incubated for 1 to 6 hrs by MitoSOX red dye based flow cytometric analysis; type: functional, cell-based; conditions: time 1-6 hrs
# [31] = tested on: Raji; assay: Effect on total mTOR protein level in human Raji cells at 1.25 to 5 uM incubated for 24 hrs by Western blot analysis; type: functional, cell-based; conditions: dose 1.25-5 µM
# [32] = tested on: Raji; assay: Induction of mitochondrial dysfunction in human Raji cells assessed as decrease in ATP-5J protein expression at 2.5 to 5 uM incubated for 48 hrs by Western blot analysis; type: functional, cell-based; conditions: dose 2.5-5 µM
# [33] = tested on: Raji; assay: Induction of apoptosis in human Raji cells assessed as early apoptotic cells at 5 uM incubated for 24 hrs in the presence of YS49 by Annexin V-FITC/PI staining based flow cytometric analysis (reference value: 0.8%); type: functional
# [34] = tested on: Daudi; assay: Induction of apoptosis in human Daudi cells assessed as early apoptotic cells at 3 uM incubated for 24 hrs by Annexin V-FITC/PI staining based flow cytometric analysis (reference value: 1.7%); type: functional
# [35] = Inhibition of PI3K/AKT/mTOR signalling pathway in human Daudi cells assessed as increase in ratio of mTOR phosphorylation to total mTOR protein level at 3 uM incubated for 12 hrs in the presence of YS49 by Western blot analysis; type: cell-based
smiles,measurement,setting,value
COc1c(OC)c2c3c(nccc3c1-c1cc(C)cc(C)c1)C(c1cc(C)cc(C)c1)=CN2,Activity,[1],49.74%
same,inhibition,[2],inactive
same,Activity,[3],Active
same,Activity,[4],9.61%
same,viability at 5 µM,[5],56.2%
same,inhibition,[6],Dose-Dependent Effect
same,Activity,[7],17%
same,Activity,[8],30.03%
same,Activity,[9],Active
same,Activity,[10],21.7%
same,Activity,[11],Active
same,Activity,[12],inactive
same,inhibition,[13],inactive
same,Activity,[14],5.4%
same,IC50,[15],2070 nM
same,Activity,[16],Active
same,Activity,[17],Active
same,Activity,[18],Active
same,Activity,[19],Active
same,Activity,[20],Dose-Dependent Effect
same,Activity,[21],Dose-Dependent Effect
same,viability at 3 µM,[22],72.7%
same,Activity,[23],inactive
same,Activity,[24],Active
same,inhibition,[25],inactive
same,Activity,[26],inactive
same,Activity,[27],Active
same,Activity,[28],Active
same,IC50,[29],3480 nM
same,Activity,[30],Active
same,Activity,[31],inactive
same,Activity,[32],Active
same,Activity,[33],11.2%
same,Activity,[34],18.6%
same,inhibition,[35],inactive
